The text below walks through data of patent US10233158B2, “Arylalkyl- and aryloxyalkyl-substituted epithelial sodium channel blocking compounds” (Parion Sciences, Inc., priority 2013, dated 2019).

What is called IC50 is the point on the concentration scale where inhibition reaches its midpoint.

For one test, the target named is T1, ENaC (Canis lupus familiaris, UniProt A0A8I3MKE6+A0A8I3Q679+Q95165).
T1 sequence (A0A8I3Q679 1-649): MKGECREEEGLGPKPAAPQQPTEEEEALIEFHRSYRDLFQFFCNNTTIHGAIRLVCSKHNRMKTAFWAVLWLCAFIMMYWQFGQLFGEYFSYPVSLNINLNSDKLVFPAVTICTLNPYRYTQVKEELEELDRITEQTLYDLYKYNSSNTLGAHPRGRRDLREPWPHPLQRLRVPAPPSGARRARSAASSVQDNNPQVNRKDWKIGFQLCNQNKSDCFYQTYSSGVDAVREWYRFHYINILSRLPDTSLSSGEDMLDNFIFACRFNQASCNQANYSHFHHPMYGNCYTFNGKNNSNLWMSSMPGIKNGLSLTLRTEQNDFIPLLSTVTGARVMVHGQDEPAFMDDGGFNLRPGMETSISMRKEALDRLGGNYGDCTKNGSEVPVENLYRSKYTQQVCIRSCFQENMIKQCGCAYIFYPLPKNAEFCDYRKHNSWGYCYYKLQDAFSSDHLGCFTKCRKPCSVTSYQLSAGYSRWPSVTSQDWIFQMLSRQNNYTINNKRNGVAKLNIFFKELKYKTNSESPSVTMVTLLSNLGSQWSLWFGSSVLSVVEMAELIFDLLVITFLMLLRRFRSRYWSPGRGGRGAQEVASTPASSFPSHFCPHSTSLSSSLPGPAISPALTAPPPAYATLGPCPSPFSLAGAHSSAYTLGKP
T1 sequence (Q95165 1-641): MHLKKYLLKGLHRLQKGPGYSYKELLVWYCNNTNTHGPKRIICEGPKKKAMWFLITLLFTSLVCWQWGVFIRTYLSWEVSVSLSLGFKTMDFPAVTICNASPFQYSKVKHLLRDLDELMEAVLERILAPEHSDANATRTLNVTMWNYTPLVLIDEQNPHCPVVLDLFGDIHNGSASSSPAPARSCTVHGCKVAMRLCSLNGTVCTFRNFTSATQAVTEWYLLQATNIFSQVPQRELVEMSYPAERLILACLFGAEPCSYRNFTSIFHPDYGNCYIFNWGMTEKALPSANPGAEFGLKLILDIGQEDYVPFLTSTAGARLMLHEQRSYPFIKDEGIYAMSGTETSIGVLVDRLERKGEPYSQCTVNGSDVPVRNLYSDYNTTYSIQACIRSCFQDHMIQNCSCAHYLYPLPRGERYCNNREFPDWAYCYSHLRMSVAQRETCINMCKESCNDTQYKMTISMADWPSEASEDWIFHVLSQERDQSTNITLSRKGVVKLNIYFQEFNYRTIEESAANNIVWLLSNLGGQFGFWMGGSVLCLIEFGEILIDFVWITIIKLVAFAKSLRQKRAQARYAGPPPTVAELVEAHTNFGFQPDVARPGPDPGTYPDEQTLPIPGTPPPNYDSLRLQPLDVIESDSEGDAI
T1 sequence (A0A8I3MKE6 1-646): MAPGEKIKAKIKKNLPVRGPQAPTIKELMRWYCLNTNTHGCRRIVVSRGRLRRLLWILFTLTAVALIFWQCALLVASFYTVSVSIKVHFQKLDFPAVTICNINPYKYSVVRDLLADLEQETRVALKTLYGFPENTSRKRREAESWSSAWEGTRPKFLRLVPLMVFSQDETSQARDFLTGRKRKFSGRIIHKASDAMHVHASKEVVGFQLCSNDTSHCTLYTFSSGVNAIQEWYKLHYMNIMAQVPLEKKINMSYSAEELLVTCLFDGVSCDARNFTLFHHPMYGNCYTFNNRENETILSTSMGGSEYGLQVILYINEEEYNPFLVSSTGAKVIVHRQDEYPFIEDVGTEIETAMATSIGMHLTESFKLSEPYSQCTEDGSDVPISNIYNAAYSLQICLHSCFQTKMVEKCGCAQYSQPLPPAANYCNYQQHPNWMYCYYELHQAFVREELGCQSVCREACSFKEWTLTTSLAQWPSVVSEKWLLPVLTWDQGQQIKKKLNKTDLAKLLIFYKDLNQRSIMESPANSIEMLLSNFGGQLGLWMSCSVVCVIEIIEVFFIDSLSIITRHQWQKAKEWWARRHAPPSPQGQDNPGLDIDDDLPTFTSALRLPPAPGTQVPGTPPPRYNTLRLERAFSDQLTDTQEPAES
Kind of test: Inhibition of short-circuit current (ISC) and reversibility, bronchial epithelial monolayers in Ussing chamber, canine cells. The class given is cell-based. The following applies: canine bronchial epithelial cells (CBE); mean ± SD (n). The protocol:
One assay used to assess mechanism of action and/or potency of the compounds of the present invention involves the determination of luminal drug inhibition of airway epithelial sodium currents measured under short circuit current (ISC) using airway epithelial monolayers mounted in Ussing chambers. Cells are obtained from freshly excised human, canine, sheep or rodent airways.
Inhibition of transcellular sodium movement through ENaC was measured using polarized bronchial epithelial cell monolayers mounted in a modified Ussing chamber. Primary cultures of canine or human bronchial epithelial cells grown using an air-liquid interface were tested under voltage clamp conditions. The short-circuit current (ISC) was measured as an index of transepithelial sodium transport to assess potency.
Recovery of short circuit current (ISC) from maximal block was used as an indirect measurement of drug off-rate.

A further test concerns the target Muc5B (Homo sapiens, UniProt Q9HC84). The following applies: in vitro; cited from earlier work.

Compound `N=C(NCCCCc1ccc(OCCN(CCCc2ccccc2)C[C@H](O)[C@@H](O)[C@H](O)[C@H](O)CO)cc1)NC(=O)c1nc(Cl)c(N)nc1N` [Compound 12, 3,5-diamino-6-chloro-N—(N-(4-(4-(2-(((2S,3R,4R,5R)-2,3,4,5,6-pentahydroxyhexyl)(3-phenylpropyl)amino)ethoxy)phenyl)butyl)carbamimidoyl)pyrazine-2-carboxamide] registered a half-inhibitory concentration (IC50) at ENaC of 6.6 ± 7 nM.
On to `N=C(NCCCCc1ccc(OCCN(CCCc2ccc3ccccc3c2)C[C@H](O)[C@@H](O)[C@H](O)[C@H](O)CO)cc1)NC(=O)c1nc(Cl)c(N)nc1N` [Compound 17, 3,5-diamino-6-chloro-N—(N-(4-(4-(2-((3-(naphthalen-2-yl)propyl)((2S,3R,4R,5R)-2,3,4,5,6-pentahydroxyhexyl)amino)ethoxy)phenyl)butyl)carbamimidoyl)pyrazine-2-carboxamide], for which inhibition at ENaC was half-maximal at 5.6 ± 9 nM (IC50).
Still for that read-out and setting: the same measure for `N=C(NCCCCc1ccc(OCCN(CCCc2cccc3ccccc23)C[C@H](O)[C@@H](O)[C@H](O)[C@H](O)CO)cc1)NC(=O)c1nc(Cl)c(N)nc1N` [Compound 27, 3,5-diamino-6-chloro-N—(N-(4-(4-(2-((3-(naphthalen-1-yl)propyl)((2S,3R,4R,5R)-2,3,4,5,6-pentahydroxyhexyl)amino)ethoxy)phenyl)butyl)carbamimidoyl)pyrazine-2-carboxamide]: 5.9 ± 4.8 nM; for `N=C(NCCCCc1ccc(CCCN(CCCc2ccccc2)C[C@H](O)[C@@H](O)[C@H](O)[C@H](O)CO)cc1)NC(=O)c1nc(Cl)c(N)nc1N` [Compound 40, 3,5-diamino-6-chloro-N—(N-(4-(4-(3-(((2S,3R,4R,5R)-2,3,4,5,6-pentahydroxyhexyl)(3-phenylpropyl)amino)propyl)phenyl)butyl)carbamimidoyl)pyrazine-2-carboxamide]: 11.8 ± 8.2 nM.
`CC(=O)N[C@@H](CS)C(=O)O` [NAC, N-acetyl cysteine]: the “concentration required to fully reduce Muc5B” value on Muc5B is recorded as 200 mM.
